Experimental data from paper PMC12141164, “Phase-1 study of vamotinib (PF-114), a 3rd generation BCR::ABL1 tyrosine kinase-inhibitor, in chronic myeloid leukaemia” (Annals of Hematology, 2025).
Values joined by “and” are separate entries in the source; they are usually repeats but may differ in a detail not shown here. Equal values may be shown once.

Tested on: BCR::ABL1 positive CML
Experiment: Phase-1 study: haematological, cytogenetic and molecular response
Type: in vivo, human
Protocol: Haematological response evaluations were done on the first day of each cycle of therapy; molecular response on the first day of cycles 1, 2, 4, 7, 10, 13 and then every three months; cytogenetic response – at screening and on the first days of cycles 4, 7, 13 and every three months thereafter, provided that there was no major molecular response.
Cytogenetic response was assessed by differential staining of chromosomes and if uninformative, by fluorescent in situ hybridization (FISH). Mutations in BCR::ABL1 were assessed by Sanger and next generation sequencing (NGS). Sanger sequencing was done at each center; NGS analyses were done in the laboratory of Prof. Susan Branford, University of Adelaide. Discordances were resolved as described in Table S2. Molecular response was assessed using the ratio of BCR::ABL1 to ABL1 measured according to the IS [9].

SMILES: Cc1ccc(C(=O)Nc2ccc(CN3CCN(C)CC3)c(C(F)(F)F)c2)cc1C#Cc1nnc2ccccn12 [vamotinib]
- CCyR (Advanced phase CML (N = 5)): none and 0/5
- MCyR (Advanced phase CML (N = 5)): none and 0/5
- MMR (Advanced phase CML (N = 5)): 0/5
- subjects with BCR::ABL1^T315I who responded (BCR::ABL1^T315I): 5 of 16 subjects
- CCyR achieved at treatment (Cohort 1 50 mg N=3): 0 no. (%)
- CCyR by 6 months (Cohort 1 50 mg N=3): 0 no. (%)
- CCyR by 12 months (Cohort 1 50 mg N=3): 0 no. (%)
- CHR achieved at treatment (Cohort 1 50 mg N=3): 1 (50) no. (%)
- CHR by the 3 months (Cohort 1 50 mg N=3): 0 no. (%)
- CHR by the 6th months (Cohort 1 50 mg N=3): 0 no. (%)
- CHR by the 12th months (Cohort 1 50 mg N=3): 1 (50) no. (%)
- MCyR achieved at treatment (Cohort 1 50 mg N=3): 0 no. (%)
- MCyR by 6 months (Cohort 1 50 mg N=3): 0 no. (%)
- MCyR by 12 months (Cohort 1 50 mg N=3): 0 no. (%)
- MMR achieved at treatment (Cohort 1 50 mg N=3): 0 no. (%)
- MMR by 6 months (Cohort 1 50 mg N=3): 0 no. (%)
- MMR by 12 months (Cohort 1 50 mg N=3): 0 no. (%)
- MMR by 24 months (Cohort 1 50 mg N=3): 0 no. (%)
- Subjects with loss of CCyR (Cohort 1 50 mg N=3): 0 no. (%)
- Subjects with loss of CHR (Cohort 1 50 mg N=3): 0 no. (%)
- Subjects with loss of MCyR (Cohort 1 50 mg N=3): 0 no. (%)
- Subjects with loss of MMR (Cohort 1 50 mg N=3): 0 no. (%)
- CCyR achieved at treatment (Cohort 2 100 mg N=3): 1 (33) no. (%)
- CCyR by 6 months (Cohort 2 100 mg N=3): 0 no. (%)
- CCyR by 12 months (Cohort 2 100 mg N=3): 0 no. (%)
- CHR achieved at treatment (Cohort 2 100 mg N=3): 0 no. (%)
- CHR by the 3 months (Cohort 2 100 mg N=3): 0 no. (%)
- CHR by the 6th months (Cohort 2 100 mg N=3): 0 no. (%)
- CHR by the 12th months (Cohort 2 100 mg N=3): 0 no. (%)
- MCyR by 6 months (Cohort 2 100 mg N=3): 1 (33) no. (%)
- MCyR by 12 months (Cohort 2 100 mg N=3): 1 (33) no. (%)
- MMR achieved at treatment (Cohort 2 100 mg N=3): 1 (33) no. (%)
- MMR by 6 months (Cohort 2 100 mg N=3): 0 no. (%)
- MMR by 12 months (Cohort 2 100 mg N=3): 0 no. (%)
- MMR by 24 months (Cohort 2 100 mg N=3): 1 (33) no. (%)
- Subjects with loss of CCyR (Cohort 2 100 mg N=3): 0 no. (%)
- Subjects with loss of CHR (Cohort 2 100 mg N=3): 0 no. (%)
- Subjects with loss of MCyR (Cohort 2 100 mg N=3): 0 no. (%)
- Subjects with loss of MMR (Cohort 2 100 mg N=3): 0 no. (%)
- CCyR achieved at treatment (Cohort 3 200 mg N=11): 3 (30) no. (%)
- CCyR by 6 months (Cohort 3 200 mg N=11): 2 (20) no. (%)
- CCyR by 12 months (Cohort 3 200 mg N=11): 2 (20) no. (%)
- CHR achieved at treatment (Cohort 3 200 mg N=11): 2 (40) no. (%)
- CHR by the 3 months (Cohort 3 200 mg N=11): 2 (40) no. (%)
- CHR by the 6th months (Cohort 3 200 mg N=11): 2 (40) no. (%)
- CHR by the 12th months (Cohort 3 200 mg N=11): 2 (40) no. (%)
- MCyR achieved at treatment (Cohort 3 200 mg N=11): 4 (50) no. (%)
- MCyR by 6 months (Cohort 3 200 mg N=11): 3 (38) no. (%)
- MCyR by 12 months (Cohort 3 200 mg N=11): 3 (38) no. (%)
- MMR achieved at treatment (Cohort 3 200 mg N=11): 2 (18) no. (%)
- MMR by 6 months (Cohort 3 200 mg N=11): 1 (9) no. (%)
- MMR by 12 months (Cohort 3 200 mg N=11): 1 (9) no. (%)
- MMR by 24 months (Cohort 3 200 mg N=11): 2 (18) no. (%)
- Subjects with loss of CCyR (Cohort 3 200 mg N=11): 1 (33) no. (%)
- Subjects with loss of CHR (Cohort 3 200 mg N=11): 2 (100) no. (%)
- Subjects with loss of MCyR (Cohort 3 200 mg N=11): 1 (25) no. (%)
- Subjects with loss of MMR (Cohort 3 200 mg N=11): 0 no. (%)
- CCyR achieved at treatment (Cohort 4 400 mg N=12): 1 (8) no. (%)
- CCyR by 6 months (Cohort 4 400 mg N=12): 1 (8) no. (%)
- CCyR by 12 months (Cohort 4 400 mg N=12): 1 (8) no. (%)
- CHR achieved at treatment (Cohort 4 400 mg N=12): 4 (57) no. (%)
- CHR by the 3 months (Cohort 4 400 mg N=12): 2 (29) no. (%)
- CHR by the 6th months (Cohort 4 400 mg N=12): 2 (29) no. (%)
- CHR by the 12th months (Cohort 4 400 mg N=12): 4 (57) no. (%)
- MCyR achieved at treatment (Cohort 4 400 mg N=12): 2 (19) no. (%)
- MCyR by 6 months (Cohort 4 400 mg N=12): 2 (19) no. (%)
- MCyR by 12 months (Cohort 4 400 mg N=12): 2 (19) no. (%)
- MMR achieved at treatment (Cohort 4 400 mg N=12): 0 no. (%)
- MMR by 6 months (Cohort 4 400 mg N=12): 0 no. (%)
- MMR by 12 months (Cohort 4 400 mg N=12): 0 no. (%)
- MMR by 24 months (Cohort 4 400 mg N=12): 0 no. (%)
- Subjects with loss of CCyR (Cohort 4 400 mg N=12): 0 no. (%)
- Subjects with loss of CHR (Cohort 4 400 mg N=12): 4 (100) no. (%)
- Subjects with loss of MCyR (Cohort 4 400 mg N=12): 0 no. (%)
- Subjects with loss of MMR (Cohort 4 400 mg N=12): 0 no. (%)
- CCyR achieved at treatment (Cohort 5 500 mg N=3): 0 no. (%)
- CCyR by 6 months (Cohort 5 500 mg N=3): 0 no. (%)
- CCyR by 12 months (Cohort 5 500 mg N=3): 0 no. (%)
- CHR achieved at treatment (Cohort 5 500 mg N=3): 0 no. (%)
- CHR by the 3 months (Cohort 5 500 mg N=3): 0 no. (%)
- CHR by the 6th months (Cohort 5 500 mg N=3): 0 no. (%)
- CHR by the 12th months (Cohort 5 500 mg N=3): 0 no. (%)
- MCyR achieved at treatment (Cohort 5 500 mg N=3): 0 no. (%)
- MCyR by 6 months (Cohort 5 500 mg N=3): 0 no. (%)
- MCyR by 12 months (Cohort 5 500 mg N=3): 0 no. (%)
- MMR achieved at treatment (Cohort 5 500 mg N=3): 0 no. (%)
- MMR by 6 months (Cohort 5 500 mg N=3): 0 no. (%)
- MMR by 12 months (Cohort 5 500 mg N=3): 0 no. (%)
- MMR by 24 months (Cohort 5 500 mg N=3): 0 no. (%)
- Subjects with loss of CCyR (Cohort 5 500 mg N=3): 0 no. (%)
- Subjects with loss of CHR (Cohort 5 500 mg N=3): 0 no. (%)
